# Test results as given in patent US8067455B2, “Amino acid derived prodrugs of propofol, compositions, uses and crystalline forms thereof” (XenoPort, Inc., priority 2004, dated 2011).
# Where two headings read alike, the source gives them in different places.
# Experiments:
# [1] = Stability at room temperature determined by LC/MS; type: physicochemical; conditions: after three months
# Procedure: (§1) The hydrochloride (3.42 g, 9.89 mmol) was crystallized by dissolution in a mixture of ethanol and toluene (1/10 v/v, 110 mL) at 80° C. and the mixture allowed to cool to room temperature. Large needle-like crystals started to form after standing at room temperature for 48 h. The solution was filtered after standing for 7 days at room temperature. The product (6) was isolated as a white crystalline solid (2.7 g, 79% yield). ^1H-NMR (400 MHz, CD3OD): δ 7.16-7.24 (m, 3H), 4.81-4.85 (dd, J=12.4, 4.4 Hz, 1H), 4.59-4.63 (dd, J=12.0 Hz, 3.2 Hz, 1H), 4.45-4.49 (dd, J=4.4, 2.8 Hz, 1H), 2.98-3.02 (m, 2H), 1.18-1.19 (d, J=7.2 Hz, 12H). MS (ESI) m/z 310.3 (M+H)^+. Melting point: 188.1-189.1° C.
# [2] = Solubility of compound (6) in water and PBS; type: physicochemical
# Procedure: as §1
# [3] = rats, oral dosing; cited from earlier work
SMILES,degradation as an aqueous solution ([1]; aqueous solution),degradation as a solid ([1]; solid),"solubility ([2]; phosphate buffered saline (PBS), aqueous buffer, read-out: solubility in phosphate buffered saline (PBS)) [µg/mL]","solubility ([2]; water, read-out: solubility in water) [µg/mL]",administered drug undergoing first pass metabolism [3]
"CC(C)c1cccc(C(C)C)c1OC(=O)OC[C@H](N)C(=O)O.Cl [compound (6), (S)-2-Amino-3-(2,6-Diisopropylphenoxy-carbonyloxy)-Propanoic Acid Hydrochloride]",no degradation,no degradation,8180,7580,
"CC(C)c1cccc(C(C)C)c1O [propofol, 2,6-diisopropylphenol]",,,,,approximately 90%
